Data set [1] is described as follows: Inhibition of N-terminal His6-tagged Plasmodium falciparum DHODH expressed in Escherichia coli BL21(DE3) cells using L-DHO as substrate by DCIP dye based assay.
A short description of data set [2]: Intrinsic clearance in human liver microsomes assessed as per mg protein. In kind it is ADME, Microsome. Background: Liver microsomes are a subcellular fraction often used to study metabolism.
Data set [3] in a line: Intrinsic clearance in mouse liver microsomes assessed as per mg protein. In kind it is ADME, Microsome. The following applies: microsomes.
Data set [4] addresses Albumin (Homo sapiens, UniProt P02768). Put plainly: Binding affinity to albumin (unknown origin) by chromatographic method. It is filed as ADME. The note with it: albumin, read-out: PB (converted).
For data set [5], the target named is T1, Dihydroorotate dehydrogenase (quinone), mitochondrial (Homo sapiens, UniProt Q02127).
The nature of data set [6]: physchem. The following applies: octanol/water, pH 7.4.
Data set [7] concerns Plasmodium falciparum. Put plainly: microbe, parasite or virus in culture. The following applies: 3D7, 72 h.
The target of data set [8] is Dihydroorotate dehydrogenase (quinone), mitochondrial (Mus musculus, UniProt O35435).
In data set [9] the target is Dihydroorotate dehydrogenase (quinone), mitochondrial (Rattus norvegicus, UniProt Q63707).
A short description of data set [10]: Inhibition of C-terminal His6-tagged Plasmodium falciparum DHODH expressed in Escherichia coli BL21(DE3) cells using L-DHO as substrate after 20 mins by 2,6-dichloroindophenol reduction based assay.
Data set [11] concerns the target T1, Dihydroorotate dehydrogenase (quinone), mitochondrial. Put plainly: Inhibition of C-terminal His6-tagged human DHODH (30 to 396 residues) expressed in Escherichia coli BL21(DE3) cells using L-DHO as substrate after 20 mins by 2,6-dichloroindophenol reduction based assay.
In data set [12] the test system is Plasmodium falciparum. Briefly: Antimalarial activity against Plasmodium falciparum 3D70087/N9 infected in NOD-SCID IL2Rgamma null mouse assessed as blood AUC level require to show 90% reduction in parasitemia administered administered once daily for 4 days. It is filed as functional, organism-based.
The nature of data set [13]: fAUC in Plasmodium falciparum 3D70087/N9 infected po dosed NOD-SCID IL2Rgamma null mouse blood administered once daily for 4 days. It is filed as ADME, organism-based. The note with it: in vivo, 96 h.
For data set [14], the system named is Plasmodium falciparum.
Data set [15] has as its system Plasmodium falciparum. Briefly: animal or person.

T1 sequence (Q02127 whole entry): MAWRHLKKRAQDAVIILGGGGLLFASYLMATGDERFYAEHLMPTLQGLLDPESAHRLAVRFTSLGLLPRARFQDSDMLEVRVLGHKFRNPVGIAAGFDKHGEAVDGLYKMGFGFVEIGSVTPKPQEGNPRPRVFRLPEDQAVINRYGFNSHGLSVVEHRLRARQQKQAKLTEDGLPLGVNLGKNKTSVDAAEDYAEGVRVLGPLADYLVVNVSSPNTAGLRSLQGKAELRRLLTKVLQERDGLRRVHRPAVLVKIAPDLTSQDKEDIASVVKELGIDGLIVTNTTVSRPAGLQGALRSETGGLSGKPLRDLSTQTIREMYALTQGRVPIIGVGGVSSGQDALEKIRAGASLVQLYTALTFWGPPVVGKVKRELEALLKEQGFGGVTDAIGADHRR
Chain of Dihydroorotate dehydrogenase (quinone), mitochondrial (Mus musculus, UniProt O35435) (O35435 whole entry): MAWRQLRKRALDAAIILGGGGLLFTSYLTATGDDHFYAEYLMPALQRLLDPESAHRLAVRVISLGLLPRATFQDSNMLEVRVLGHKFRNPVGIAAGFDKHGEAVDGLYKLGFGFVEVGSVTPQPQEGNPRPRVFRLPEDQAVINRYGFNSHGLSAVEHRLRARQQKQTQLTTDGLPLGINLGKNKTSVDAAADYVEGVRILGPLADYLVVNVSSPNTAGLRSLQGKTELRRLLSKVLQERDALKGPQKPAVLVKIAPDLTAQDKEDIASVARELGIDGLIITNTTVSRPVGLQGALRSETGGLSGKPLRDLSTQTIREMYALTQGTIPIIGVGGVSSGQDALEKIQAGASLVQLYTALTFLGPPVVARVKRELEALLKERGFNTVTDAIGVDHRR
Chain of Dihydroorotate dehydrogenase (quinone), mitochondrial (Rattus norvegicus, UniProt Q63707) (Q63707 whole entry): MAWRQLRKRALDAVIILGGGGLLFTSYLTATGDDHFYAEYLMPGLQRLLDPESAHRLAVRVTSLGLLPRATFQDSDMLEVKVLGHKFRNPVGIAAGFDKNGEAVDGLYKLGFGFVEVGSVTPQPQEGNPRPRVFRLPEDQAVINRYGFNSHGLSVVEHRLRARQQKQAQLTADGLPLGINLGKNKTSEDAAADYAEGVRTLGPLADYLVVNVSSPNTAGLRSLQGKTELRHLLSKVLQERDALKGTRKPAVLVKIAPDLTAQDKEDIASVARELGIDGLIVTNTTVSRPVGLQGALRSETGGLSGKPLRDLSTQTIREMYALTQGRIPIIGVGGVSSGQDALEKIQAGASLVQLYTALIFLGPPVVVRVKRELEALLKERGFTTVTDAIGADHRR
Chain of Albumin (P02768 whole entry): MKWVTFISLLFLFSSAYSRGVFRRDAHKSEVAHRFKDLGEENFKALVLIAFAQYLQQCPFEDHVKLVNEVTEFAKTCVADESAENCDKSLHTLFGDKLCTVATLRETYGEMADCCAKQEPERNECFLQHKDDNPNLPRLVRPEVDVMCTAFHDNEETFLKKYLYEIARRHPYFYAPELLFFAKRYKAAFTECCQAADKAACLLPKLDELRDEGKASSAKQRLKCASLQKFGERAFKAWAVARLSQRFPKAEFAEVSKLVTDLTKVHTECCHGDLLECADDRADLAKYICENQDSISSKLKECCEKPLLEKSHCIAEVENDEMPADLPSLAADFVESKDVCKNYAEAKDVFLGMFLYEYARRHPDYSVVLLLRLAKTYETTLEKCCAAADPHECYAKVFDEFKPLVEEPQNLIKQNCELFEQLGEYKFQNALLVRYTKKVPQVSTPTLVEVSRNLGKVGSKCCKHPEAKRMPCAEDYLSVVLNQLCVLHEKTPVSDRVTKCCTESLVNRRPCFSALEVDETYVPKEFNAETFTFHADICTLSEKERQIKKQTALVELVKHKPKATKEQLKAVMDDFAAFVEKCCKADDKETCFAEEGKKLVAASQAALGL

The IC50 is the point on the concentration scale where inhibition reaches its midpoint. Low readings indicate greater potency in that assay, high ones weaker potency in that assay. The term microsomal CLint denotes a measure of how fast metabolising enzymes remove a compound, apart from limits set by blood flow. One may read the logD as lipophilicity at a set pH, counting ionised and neutral species. A word on the EC50: it is the concentration giving half of the maximal effect. Lower therefore signals an effect from little substance. In the case of `Cc1c(C(O)c2ccc(C(F)(F)F)nc2)c[nH]c1C(=O)NC1CC1` (racemic), the concentration for half-maximal inhibition (IC50) in data set [1] was 74 nM; in [5] it was greater than 100000 nM. Besides, the results for the intrinsic metabolic clearance (microsomal CLint) in data set [2] and in data set [3] were 20 µL/min/mg and 40 µL/min/mg, respectively. In data set [4], the fraction unbound is 0.105. This compound also had a logD in data set [6] of 3.2. Besides, in data set [7], the half-maximal effective concentration (EC50) was determined as 44 nM.
For `CCOC(=O)c1[nH]c(C)c(Cc2ccc(C(F)(F)F)cc2)c1C`, the IC50 in [5], in data set [8] and in data set [9] was greater than 100000 nM throughout. Besides, the half-maximal effective concentration (EC50) in data set [7] was in the range of 61 to 71 nM.
Regarding `Cc1[nH]c(C(=O)NC2CC2)c(C)c1Oc1ccc(C(F)(F)F)nc1`, the IC50 in [1] is 800 nM; in data set [5], greater than 100000 nM. Further, the microsomal CLint worked out at 8 µL/min/mg in [2] and 22 µL/min/mg in [3]. Also, the fraction unbound in data set [4] is 0.573. Further, in data set [6], the pH-dependent lipophilicity (logD) is 1.7. In data set [7], this compound returned a concentration giving a half-maximal response (EC50) of 290 nM.
Take `Cc1c(Cc2ccc(C(F)(F)F)cc2)c[nH]c1C(=O)NC1CC1`: the IC50 in data set [1] was 48 nM; in data set [5], greater than 100000 nM. Moreover, the microsomal CLint in data set [2] was determined as 19 µL/min/mg; in [3], 173 µL/min/mg. Also, the fraction unbound in data set [4] was 0.029. Moreover, the logD in data set [6] is 3.7. This compound also registered a 50% effective concentration (EC50) in data set [7] of 18 nM.
Turning to `Cc1c(Cc2ccc(C(F)(F)F)nc2)c[nH]c1C(=O)N1CCC1`, the IC50 in data set [1] is 170 nM; in [5] it was greater than 100000 nM. The intrinsic metabolic clearance (microsomal CLint) in [2] is less than 7 µL/min/mg; in [3], 192 µL/min/mg. Also, the fraction unbound in data set [4] was 0.341. Also, the logD in [6] was 2.7. The same compound had an EC50 in data set [7] of 82 nM.
Regarding `Cc1[nH]c(C(=O)NC2CC2)cc1Cc1ccc(C(F)(F)F)nc1`, the 50% inhibitory concentration (IC50) in data set [1] is 10000 nM; in data set [5], greater than 100000 nM. Besides, the intrinsic metabolic clearance (microsomal CLint) was 36 µL/min/mg in data set [2] and 41 µL/min/mg in data set [3]. Besides, in [4], the fraction unbound was 0.274. In data set [6], this compound came in with a logD of 2.8. For the same compound, in [7], the EC50 was 3600 nM.
As for `O=C(NC1CC1)c1cc(Cc2ccc(C(F)(F)F)nc2)c[nH]1`, the values for the IC50 in [1] and in data set [5] were 2500 nM and greater than 100000 nM, respectively. In addition, the microsomal CLint in data set [2] was 31 µL/min/mg; in data set [3] it was 96 µL/min/mg. Also, the fraction unbound in data set [4] was 0.333. The compound also showed a logD in [6] of 2.6. The same compound gave an EC50 in [7] of 500 to 1700 nM.
For the compound `Cc1c(Cc2ccc(C(F)(F)F)nc2)c[nH]c1C(=O)NC1CCC1`, the IC50 is 44 nM in [1] and greater than 100000 nM in data set [5]. For the same compound, the intrinsic metabolic clearance (microsomal CLint) was 29 µL/min/mg in data set [2] and 204 µL/min/mg in data set [3]. Moreover, in [4], the fraction unbound is 0.165. Besides, the logD in [6] was found to be 3.2. This compound yielded a concentration for a half-maximal effect (EC50) in [7] of 27 nM.
For the compound `CCOC(=O)c1[nH]c(C)c(Cc2ccc(C(F)(F)F)nc2)c1C`, the values for the microsomal CLint in data set [2] and in [3] were 286 µL/min/mg and 779 µL/min/mg, respectively. For the same compound, in [4], the fraction unbound is 0.064. Further, the IC50 in [5], in data set [8] and in data set [9] was greater than 100000 nM in each case. For the same compound, in [6], the log distribution coefficient (logD) amounted to 3.7. Also, in data set [7], the EC50 turned out to be 9.2 nM.
For the compound `Cc1c(Cc2ccc(C(F)(F)F)cc2F)c[nH]c1C(=O)NC1CC1`, the IC50 in data set [1] is 44 nM; in data set [5] it was greater than 100000 nM. Also, the microsomal CLint in [2] amounted to 15 µL/min/mg; in data set [3] it was 184 µL/min/mg. Further, the fraction unbound in data set [4] is 0.03. The compound further gave a logD in [6] of 3.8. In addition, in data set [7], a half-maximal effect (EC50) was put at 16 nM.
As for `Cc1c(Cc2ccc(C(F)(F)F)nc2)c[nH]c1C(=O)N1CC(F)(F)C1`, the concentration for half-maximal inhibition (IC50) in data set [1] is 33 nM; in [5], greater than 100000 nM; in data set [8] it was greater than 100000 nM; in data set [9], greater than 100000 nM. Also, the microsomal CLint turned out to be 21 µL/min/mg in data set [2] and 94 µL/min/mg in data set [3]. The fraction unbound in data set [4] was 0.251. Besides, the logD in data set [6] was found to be 3.3. In addition, a half-maximal response in data set [7] (EC50) required 29 nM.
As to `CCOC(=O)c1[nH]c(C)c(Cc2ccc(OC)cc2)c1C`, the IC50 in data set [1] is 520 nM; in data set [5] it was greater than 100000 nM; in data set [8], greater than 100000 nM; in data set [9], greater than 100000 nM. The compound also returned a 50% effective concentration (EC50) in [7] of 590 nM.
`Cc1c(Cc2ccc(C(F)(F)F)nc2)c[nH]c1C(=O)NCC(F)(F)F`: the half-maximal inhibitory concentration (IC50) in data set [1] is 210 nM; in data set [5], greater than 100000 nM. Besides, the microsomal CLint in data set [2] came to 15 µL/min/mg; in data set [3], 57 µL/min/mg. For the same compound, the fraction unbound in data set [4] is 0.181. The compound also registered a logD in [6] of 3.3. Also, the 50% effective concentration (EC50) in data set [7] fell in the range of 44 to 59 nM.
Take `CCNC(=O)c1[nH]c(C)c(Cc2ccc(C(F)(F)F)nc2)c1C`: the half-maximal inhibitory concentration (IC50) in data set [1] was 54 nM; in [5] it was greater than 100000 nM. Moreover, the intrinsic metabolic clearance (microsomal CLint) was 70 µL/min/mg in [2] and 54 µL/min/mg in data set [3]. In addition, the fraction unbound in data set [4] was 0.229. In addition, the pH-dependent lipophilicity (logD) in [6] came to 2.8. The EC50 in [7] came out at 33 nM.
Take `CCCNC(=O)c1[nH]c(C)c(Cc2ccc(C(F)(F)F)nc2)c1C`: the half-inhibitory concentration (IC50) in data set [1] is 72 nM; in data set [5], greater than 100000 nM. Moreover, the values for the intrinsic metabolic clearance (microsomal CLint) in [2] and in data set [3] were 172 µL/min/mg and 64 µL/min/mg, respectively. Moreover, the fraction unbound in data set [4] is 0.155. The same compound gave a logD in data set [6] of 3.2. The compound further had an EC50 in data set [7] of 47 nM.
In the case of `Cc1c(Cc2ccc(C(F)(F)F)cc2Cl)c[nH]c1C(=O)NC1CC1`, the IC50 was 17 nM in [1] and greater than 100000 nM in [5]. Also, the microsomal CLint in data set [2] is 14 µL/min/mg; in [3], 264 µL/min/mg. Further, in data set [4], the fraction unbound is 0.019. In addition, the logD in [6] worked out at 4.1. The 50% effective concentration (EC50) in data set [7] was 20 nM.
In the case of `Cc1nc2cc(OC(F)(F)F)ccc2n1-c1ccc(C(=O)NC2CC2)s1`, the results for the half-inhibitory concentration (IC50) in data set [10] and in data set [11] were 22 nM and greater than 30000 nM, respectively. In addition, a half-maximal response in data set [7] (EC50) required 7 nM.
Turning to `Cc1cc(Nc2ccc(C(F)(F)F)nc2)n2nc(C(C)(F)F)nc2n1`, the AUCED90 in data set [12] came out at 12.9 µg·h/mL. This compound had a fAUC in data set [13] of 250 ng·h/mL. Moreover, the fEC50 in data set [14] turned out to be 0.007 µM. In [15] (3D70087/N9, 96 h), the response was half-maximal at 14 nM (EC50). The ED90 in data set [15] (3D70087/N9, in Mus musculus, po, 96 h) was determined as 2.6 mg/kg/day.

Values taken from ChEMBL document CHEMBL4602703, “Lead Optimization of a Pyrrole-Based Dihydroorotate Dehydrogenase Inhibitor Series for the Treatment of Malaria” (J Med Chem, 2020).
